From the supplement of paper PMC11208160
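Also: IS621 recombinase and bridge RNA in Escherichia coli cells.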

Experiment: recombinant barcode read abundance after kanamycin selection (control-corrected) (log10(CPM+1)); higher = more efficient recombination; sequences stand for … in AGTGCAGAGAAAATCGGCCAGTTTTCTCTGCCTGCAGTCCGCATGCCGT…AGATTTATGCAGCGGACTGCCTTTCTCCCAAAGTGATAAACCGGACAGTATCATGGACCGGTTTTCCCGGTAATCCGTATTTGCAAGGTTGGTTTCACT; site = the 11-nt target
How it was run: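 Two replicates per condition were plated: chloramphenicol/ampicillin LB agar for the control, and chloramphenicol/ampicillin/kanamycin with 0.1 mM IPTG for selection. The pooled E. coli screen behind them paired targets with IS621 bridge RNA target-binding loops. Recombination efficiency is expressed from averaged, control-corrected barcode counts per million at recombinant junctions, as log10(CPM+1).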
In the case of “TGGTATACTTGGGTTCTAACCTGTTGCCT (site TGGTATGCTAG)”, the “recombinant barcode read abundance (log10)” value is reported as 0.183.
In the case of “TGGTATACTTGGGTTCTAACCTGTTGCCT (site TGGTATTCTAG)”, the “recombinant barcode read abundance (log10)” value is reported as 0.122.
For “TGGTGTGCTTGGGTTCTAACCTGTTGCCA (site TAGTGTCCTTG)”, the “recombinant barcode read abundance (log10)” value was 0.0537.
In the case of “TGGTGTGCTTGGGTTCTAACCTGTTGCCA (site TGGTGTGCTTG)”, the “recombinant barcode read abundance (log10)” value is reported as 0.267.
With “TGTAAGGCTTGGGTTCTAACCTGTTGCTT (site TGTAAGACTCA)” the “recombinant barcode read abundance (log10)” value was 0.142.
For “TGTAAGGCTTGGGTTCTAACCTGTTGCTT (site TGTAAGGCTAA)”, the “recombinant barcode read abundance (log10)” value was 0.27.
With “TGTAATCCTTGGGTTCTAACCTGTTGCCT (site TGTAATACTAG)” the “recombinant barcode read abundance (log10)” value was 0.327.
In the case of “TGTAATCCTTGGGTTCTAACCTGTTGCCT (site TGTAATCCTAG)”, the “recombinant barcode read abundance (log10)” value is reported as 0.025.
For “TGTAATCCTTGGGTTCTAACCTGTTGCCT (site TGTAATGCTAG)”, the “recombinant barcode read abundance (log10)” value was 0.032.
In the case of “TGTAATCCTTGGGTTCTAACCTGTTGCCT (site TGTAATTCTAG)”, the “recombinant barcode read abundance (log10)” value is reported as 0.0105.
With “TGTAATGCTTGGGTTCTAACCTGTTGCCT (site TGTAATACTAG)” the “recombinant barcode read abundance (log10)” value was 0.0123.
With “TGTAATGCTTGGGTTCTAACCTGTTGCCT (site TGTAATCCTAG)” the “recombinant barcode read abundance (log10)” value was 0.181.
With “TGTAATGCTTGGGTTCTAACCTGTTGCCT (site TGTAATGCTAG)” the “recombinant barcode read abundance (log10)” value was 0.912.
In the case of “TGTAATGCTTGGGTTCTAACCTGTTGCCT (site TGTAATTCTAG)”, the “recombinant barcode read abundance (log10)” value is reported as 0.181.
With “TGTAATTCTTGGGTTCTAACCTGTTGCCT (site TGTAATACTAG)” the “recombinant barcode read abundance (log10)” value was 0.139.
With “TGTAATTCTTGGGTTCTAACCTGTTGCCT (site TGTAATCCTAG)” the “recombinant barcode read abundance (log10)” value was 0.0849.
In the case of “TGTAATTCTTGGGTTCTAACCTGTTGCCT (site TGTAATGCTAG)”, the “recombinant barcode read abundance (log10)” value is reported as 0.
In the case of “TGTAATTCTTGGGTTCTAACCTGTTGCCT (site TGTAATTCTAG)”, the “recombinant barcode read abundance (log10)” value is reported as 0.18.
In the case of “TGTCAAACTTGGGTTCTAACCTGTTGCGT (site TGTCAAACTAC)”, the “recombinant barcode read abundance (log10)” value is reported as 0.838.
In the case of “TGTCAAACTTGGGTTCTAACCTGTTGCGT (site TGTCAACCTAC)”, the “recombinant barcode read abundance (log10)” value is reported as 0.0278.
In the case of “TGTCGAGCTTGGGTTCTAACCTGTTGCCG (site TGTAGAGCTCG)”, the “recombinant barcode read abundance (log10)” value is reported as 0.0366.
For “TGTCGAGCTTGGGTTCTAACCTGTTGCCG (site TGTCGAGCTCG)”, the “recombinant barcode read abundance (log10)” value was 0.107.
In the case of “TGTCGAGCTTGGGTTCTAACCTGTTGCCG (site TGTGGAGCTCG)”, the “recombinant barcode read abundance (log10)” value is reported as 0.0604.
With “TGTCGAGCTTGGGTTCTAACCTGTTGCCG (site TGTTGAGCTCG)” the “recombinant barcode read abundance (log10)” value was 0.106.
With “TGTCGCTCTTGGGTTCTAACCTGTTGCCT (site TGACGCTCTAG)” the “recombinant barcode read abundance (log10)” value was 0.0464.
With “TGTCGCTCTTGGGTTCTAACCTGTTGCCT (site TGCCGCTCTAG)” the “recombinant barcode read abundance (log10)” value was 0.0379.
In the case of “TGTCGCTCTTGGGTTCTAACCTGTTGCCT (site TGGCGCTCTAG)”, the “recombinant barcode read abundance (log10)” value is reported as 0.129.
For “TGTCGCTCTTGGGTTCTAACCTGTTGCCT (site TGTCGCTCTAG)”, the “recombinant barcode read abundance (log10)” value was 1.1.
For “TGTCGGACTTGGGTTCTAACCTGTTGCAA (site TGTCGGACTAT)”, the “recombinant barcode read abundance (log10)” value was 0.146.
In the case of “TGTCGGACTTGGGTTCTAACCTGTTGCAA (site TGTCGGACTCT)”, the “recombinant barcode read abundance (log10)” value is reported as 0.149.
In the case of “TGTCGGACTTGGGTTCTAACCTGTTGCAA (site TGTCGGACTGT)”, the “recombinant barcode read abundance (log10)” value is reported as 0.0423.
For “TGTCGGACTTGGGTTCTAACCTGTTGCAA (site TGTCGGACTTT)”, the “recombinant barcode read abundance (log10)” value was 0.421.
With “TGTCGGACTTGGGTTCTAACCTGTTGCAT (site TGTCGGACTAT)” the “recombinant barcode read abundance (log10)” value was 1.32.
In the case of “TGTCGGACTTGGGTTCTAACCTGTTGCAT (site TGTCGGACTCT)”, the “recombinant barcode read abundance (log10)” value is reported as 0.18.
For “TGTCGGACTTGGGTTCTAACCTGTTGCAT (site TGTCGGACTGT)”, the “recombinant barcode read abundance (log10)” value was 0.0199.
With “TGTCGGACTTGGGTTCTAACCTGTTGCAT (site TGTCGGACTTT)” the “recombinant barcode read abundance (log10)” value was 0.0384.
For “TGTCTACCTTGGGTTCTAACCTGTTGCTA (site TGTCTACCTTA)”, the “recombinant barcode read abundance (log10)” value was 0.103.
For “TGTCTACCTTGGGTTCTAACCTGTTGCTA (site TGTCTCCCTAA)”, the “recombinant barcode read abundance (log10)” value was 0.209.
With “TGTCTCCCTTGGGTTCTAACCTGTTGCGT (site GAAGAGGCTTG)” the “recombinant barcode read abundance (log10)” value was 0.154.
With “TGTCTCCCTTGGGTTCTAACCTGTTGCGT (site TGTCTCCCTAC)” the “recombinant barcode read abundance (log10)” value was 1.04.
In the case of “TGTCTGTCTTGGGTTCTAACCTGTTGCTT (site TGTCTGTCTAA)”, the “recombinant barcode read abundance (log10)” value is reported as 0.186.
In the case of “TGTCTGTCTTGGGTTCTAACCTGTTGCTT (site TGTCTGTCTTA)”, the “recombinant barcode read abundance (log10)” value is reported as 0.0372.
With “TGTGACTCTTGGGTTCTAACCTGTTGCCT (site TGAGACTCTAG)” the “recombinant barcode read abundance (log10)” value was 0.088.
For “TGTGACTCTTGGGTTCTAACCTGTTGCCT (site TGCGACTCTAG)”, the “recombinant barcode read abundance (log10)” value was 0.0199.
With “TGTGACTCTTGGGTTCTAACCTGTTGCCT (site TGGGACTCTAG)” the “recombinant barcode read abundance (log10)” value was 0.0547.
With “TGTGACTCTTGGGTTCTAACCTGTTGCCT (site TGTGACTCTAG)” the “recombinant barcode read abundance (log10)” value was 0.912.
In the case of “TGTGAGCCTTGGGTTCTAACCTGTTGCGA (site CTGCGCTCTAT)”, the “recombinant barcode read abundance (log10)” value is reported as 0.0373.
For “TGTGAGCCTTGGGTTCTAACCTGTTGCGA (site TGTGAGCCTTC)”, the “recombinant barcode read abundance (log10)” value was 0.748.
For “TGTGCACCTTGGGTTCTAACCTGTTGCAC (site TGTGCACCTGT)”, the “recombinant barcode read abundance (log10)” value was 0.32.
In the case of “TGTGCACCTTGGGTTCTAACCTGTTGCAC (site TGTGCTCCTCT)”, the “recombinant barcode read abundance (log10)” value is reported as 0.0746.
In the case of “TGTGCGACTTGGGTTCTAACCTGTTGCAC (site TGAGCTACTGT)”, the “recombinant barcode read abundance (log10)” value is reported as 0.0835.
In the case of “TGTGCGACTTGGGTTCTAACCTGTTGCAC (site TGTGCGACTGT)”, the “recombinant barcode read abundance (log10)” value is reported as 0.0665.
In the case of “TGTGCGTCTTGGGTTCTAACCTGTTGCCT (site AGTGCGTCTAG)”, the “recombinant barcode read abundance (log10)” value is reported as 0.0921.
For “TGTGCGTCTTGGGTTCTAACCTGTTGCCT (site CGTGCGTCTAG)”, the “recombinant barcode read abundance (log10)” value was 0.136.
With “TGTGCGTCTTGGGTTCTAACCTGTTGCCT (site GGTGCGTCTAG)” the “recombinant barcode read abundance (log10)” value was 0.0172.
With “TGTGCGTCTTGGGTTCTAACCTGTTGCCT (site TGTGCGTCTAG)” the “recombinant barcode read abundance (log10)” value was 0.801.
For “TGTGCTACTTGGGTTCTAACCTGTTGCAC (site GACCTATCTAG)”, the “recombinant barcode read abundance (log10)” value was 0.327.
For “TGTGCTACTTGGGTTCTAACCTGTTGCAC (site TGTGCTACTGT)”, the “recombinant barcode read abundance (log10)” value was 0.0867.
With “TGTGCTCCTTGGGTTCTAACCTGTTGCAG (site TGTGCACCTGT)” the “recombinant barcode read abundance (log10)” value was 0.294.
In the case of “TGTGCTCCTTGGGTTCTAACCTGTTGCAG (site TGTGCTCCTCT)”, the “recombinant barcode read abundance (log10)” value is reported as 0.113.
In the case of “TGTGTCTCTTGGGTTCTAACCTGTTGCGT (site TCTGTCTCTAG)”, the “recombinant barcode read abundance (log10)” value is reported as 0.363.
In the case of “TGTGTCTCTTGGGTTCTAACCTGTTGCGT (site TGTGTCTCTAC)”, the “recombinant barcode read abundance (log10)” value is reported as 2.63.
With “TGTTGAGCTTGGGTTCTAACCTGTTGCCG (site TGTAGAGCTCG)” the “recombinant barcode read abundance (log10)” value was 0.09.
In the case of “TGTTGAGCTTGGGTTCTAACCTGTTGCCG (site TGTCGAGCTCG)”, the “recombinant barcode read abundance (log10)” value is reported as 0.192.
With “TGTTGAGCTTGGGTTCTAACCTGTTGCCG (site TGTGGAGCTCG)” the “recombinant barcode read abundance (log10)” value was 0.258.
In the case of “TGTTGAGCTTGGGTTCTAACCTGTTGCCG (site TGTTGAGCTCG)”, the “recombinant barcode read abundance (log10)” value is reported as 0.554.
With “TGTTGTTCTTGGGTTCTAACCTGTTGCCT (site GGTTGTTCTAG)” the “recombinant barcode read abundance (log10)” value was 0.0142.
With “TGTTGTTCTTGGGTTCTAACCTGTTGCCT (site TGTTGTTCTAG)” the “recombinant barcode read abundance (log10)” value was 0.0851.
For “TGTTTAACTTGGGTTCTAACCTGTTGCCT (site TGGTTACCTAG)”, the “recombinant barcode read abundance (log10)” value was 0.126.
For “TGTTTAACTTGGGTTCTAACCTGTTGCCT (site TGTTTAACTAG)”, the “recombinant barcode read abundance (log10)” value was 0.0368.
For “TTAAAACCTTGGGTTCTAACCTGTTGCCT (site ATAAAACCTAG)”, the “recombinant barcode read abundance (log10)” value was 0.0421.
For “TTAAAACCTTGGGTTCTAACCTGTTGCCT (site CTAAAACCTAG)”, the “recombinant barcode read abundance (log10)” value was 0.0966.
With “TTAAAACCTTGGGTTCTAACCTGTTGCCT (site GTAAAACCTAG)” the “recombinant barcode read abundance (log10)” value was 0.06.
In the case of “TTAAAACCTTGGGTTCTAACCTGTTGCCT (site TTAAAACCTAG)”, the “recombinant barcode read abundance (log10)” value is reported as 0.751.
In the case of “TTAACTACTTGGGTTCTAACCTGTTGCTT (site TTAACTACTAA)”, the “recombinant barcode read abundance (log10)” value is reported as 0.0821.
For “TTAACTACTTGGGTTCTAACCTGTTGCTT (site TTAACTACTCA)”, the “recombinant barcode read abundance (log10)” value was 0.233.
For “TTAACTACTTGGGTTCTAACCTGTTGCTT (site TTAACTACTGA)”, the “recombinant barcode read abundance (log10)” value was 0.294.
In the case of “TTAACTACTTGGGTTCTAACCTGTTGCTT (site TTAACTACTTA)”, the “recombinant barcode read abundance (log10)” value is reported as 0.0225.
For “TTAAGCCCTTGGGTTCTAACCTGTTGCCT (site TTAAGACCTAG)”, the “recombinant barcode read abundance (log10)” value was 0.288.
With “TTAAGCCCTTGGGTTCTAACCTGTTGCCT (site TTAAGCCCTAG)” the “recombinant barcode read abundance (log10)” value was 1.41.
In the case of “TTAAGCTCTTGGGTTCTAACCTGTTGCCT (site ATAAGCTCTAG)”, the “recombinant barcode read abundance (log10)” value is reported as 0.125.
For “TTAAGCTCTTGGGTTCTAACCTGTTGCCT (site CTAAGCTCTAG)”, the “recombinant barcode read abundance (log10)” value was 0.197.
In the case of “TTAAGCTCTTGGGTTCTAACCTGTTGCCT (site GTAAGCTCTAG)”, the “recombinant barcode read abundance (log10)” value is reported as 0.
For “TTAAGCTCTTGGGTTCTAACCTGTTGCCT (site TTAAGCTCTAG)”, the “recombinant barcode read abundance (log10)” value was 1.43.
In the case of “TTAAGTCCTTGGGTTCTAACCTGTTGCAT (site TTAAGTCCTAT)”, the “recombinant barcode read abundance (log10)” value is reported as 0.498.
For “TTAAGTCCTTGGGTTCTAACCTGTTGCAT (site TTAGGTCCTAA)”, the “recombinant barcode read abundance (log10)” value was 0.0454.
